Each structure is given as a SMILES string. Like-named read-outs stand apart in the source and are kept apart here.

The format of this data set is physicochemical.
The mark [1] stands for this setting: Table 3, accelerated for 0 month, hydroxysafflor yellow A per CN102675379A purity 89.9%, sodium salt purity 98.6%.
Setting [2] is: Table 3, accelerated for 1 month, hydroxysafflor yellow A per CN102675379A purity 89.9%, sodium salt purity 98.6%.
The mark [3] stands for this setting: Table 3, accelerated for 2 months, hydroxysafflor yellow A per CN102675379A purity 89.9%, sodium salt purity 98.6%.
[4] abbreviates: Table 3, accelerated for 3 months, hydroxysafflor yellow A per CN102675379A purity 89.9%, sodium salt purity 98.6%.
The mark [5] stands for this setting: Table 4, accelerated for 0 month, hydroxysafflor yellow A by acidizing purity 99.2%, sodium salt purity 99.2%.
Where [6] appears, read: Table 4, accelerated for 2 months, hydroxysafflor yellow A by acidizing purity 99.2%, sodium salt purity 99.2%.
Setting [7] is: Table 4, accelerated for 3 months, hydroxysafflor yellow A by acidizing purity 99.2%, sodium salt purity 99.2%.

Take `O=C(/C=C/c1ccc(O)cc1)C1=C(O)C(O)(C2OC(CO)C(O)C(O)C2O)C(O)=C(C2OC(CO)C(O)C(O)C2O)C1=O` (stereo not drawn) [Hydroxysafflor yellow A, hydroxysafflor yellow A]: the “Content (counting Hydroxyl A)” value is on record as 89.8% under setting [1]; 84.7% under setting [2]; 79.2% under setting [3]; 71.2% under setting [4]; 99.1% under setting [5]; 89.2% under setting [6]. The “Content (counting Hydroxyl A)” value under setting [7] is on record as 81.3%. Also, the Total impurity is, setting by setting: under setting [1], 10.1%; under setting [2], 14.9%; under setting [3], 20.8%; under setting [4], 28.6%; under setting [5], 0.8%; (Table 4, accelerated for 1 month, hydroxysafflor yellow A by acidizing purity 99.2%, sodium salt purity 99.2%) 5.9%. Besides, the Total impurity is, setting by setting: under setting [6], 10.7%; under setting [7], 18.6%.

These data come from patent US9243019B2 (priority 2013, dated 2016).
